Measurements from patent US5324648A, “Substituted isocoumarins as serine protease inhibitors and anti-inflammatory agents” (Georgia Tech Research Corporation, priority 1992, dated 1994).
Counter-ions that a name gives are not always drawn. Like-named read-outs stand apart in the source and are kept apart here.

Columns and labels:
[1] = target: T1, bovine trypsin (Bos taurus, UniProt P00760); experiment: Inactivation rate of bovine trypsin; format: biochemical; details: Table I; pH 7.5, 25° C; [I] 1 to 12 μM; read-out: kobs/[I]
T1 sequence (P00760 24-246): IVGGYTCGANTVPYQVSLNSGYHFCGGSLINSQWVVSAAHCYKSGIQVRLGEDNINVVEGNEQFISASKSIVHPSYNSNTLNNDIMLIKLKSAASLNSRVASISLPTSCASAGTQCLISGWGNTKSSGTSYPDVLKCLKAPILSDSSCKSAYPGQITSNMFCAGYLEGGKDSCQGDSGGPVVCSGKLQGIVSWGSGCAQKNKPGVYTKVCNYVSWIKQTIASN
Protocol: (§1) Inactivation rates of serine proteases by substituted isocoumarins were measured by the incubation method. An aliquot of inhibitor (25 or 50 μl) in Me2 SO was added to a buffered enzyme solution (0.01-2.3 μM) to initiate the inactivation. Aliquots (50 μl) were withdrawn at various intervals and the residual enzymatic activity was measured. Me2 SO concentration in the reaction mixture was 8-12% (v/v). 0.1 Hepes, 0.01M CaCl2, pH 7.5 buffer was utilized for trypsin and coagulation enzymes. 0.1M Hepes, 0.5M NaCl, pH 7.5 was utilized for other serine proteases. The inhibitor concentrations are shown in all the tables. Peptide thioesters or peptide nitroanilides with appropriate sequence were used as substrates for various serine proteases. All peptide thioester hydrolysis rates were measured with assay mixtures containing 4,4'-dithiodipyridine (ε324 =19800M^-1 cm^-1; Grasetti & Murray, Arch. Biochem. Biophys. 119, pp 41-49 (1967)). Peptide 4-nitroanilide nitroanilide hydrolysis was measured at 410 nm (ε410 =8800M^-1 cm^-1; Erlanger et al., Arch. Biochem. Biophys. 95, pp 271-278 (1961)). First order inactivation rate constant (kobs) were obtained from plots of ln (vt /vo) vs time, and the correlation coefficients were greater than 0.98.
(§2) ^a Conditions were as 0.1M Hepes, 0.01M CaCl2, pH 7.5 and 8-12%
(§3) Me2 SO and 25° C. Rate constants were measured by incubation
(§4) method unless otherwise noted. An aliquot of inhibitor was added to an
(§5) enzyme solution and aliquots removed with time and assayed for remaining
(§6) enzymatic activity. Firstorder rate constants, kobs were obtained
(§7) from the plots of ln(vt /vo) versus time.
(§8) ^a Inhibition rates were measured in 0.1M Hepes, 0.01M CaCl2, pH
(§9) 7.5 buffer, 8% Me2 SO and at 25° C.

[2] = target: T2, porcine pancreatic elastase (PPE) (Sus scrofa, UniProt P00772); experiment: Inactivation of porcine pancreatic elastase (PPE); format: biochemical; details: Table IV; pH 7.5, 25° C; [I] 0.01 to 0.51 mM; read-out: kobs/[I]
T2 construct: from tissue; host or cells: porcine pancreas (from the name)

[3] = target: T3, human leukocyte elastase (HLE) (Homo sapiens, UniProt P08246); experiment: Inactivation of human leukocyte elastase (HLE); format: biochemical; details: Table IV; pH 7.5, 25° C; [I] 0.001 to 0.18 mM; read-out: kobs/[I]
T3 construct: from tissue; host or cells: human leukocytes (from the name)
T3 sequence (P08246 30-267): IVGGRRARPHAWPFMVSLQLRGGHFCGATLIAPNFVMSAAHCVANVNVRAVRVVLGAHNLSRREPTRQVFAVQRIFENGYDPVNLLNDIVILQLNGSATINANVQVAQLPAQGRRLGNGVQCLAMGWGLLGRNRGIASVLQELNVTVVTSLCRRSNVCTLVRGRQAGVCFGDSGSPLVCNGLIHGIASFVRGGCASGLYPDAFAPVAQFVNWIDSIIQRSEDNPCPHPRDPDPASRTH

[4] = target: T4, cathepsin G (Homo sapiens, UniProt P08311); experiment: Inactivation of cathepsin G; format: biochemical; details: pH 7.5, 25° C, read-out: kobs/[I]
T4 construct: from tissue; host or cells: human leukocytes
T4 sequence (P08311 21-255): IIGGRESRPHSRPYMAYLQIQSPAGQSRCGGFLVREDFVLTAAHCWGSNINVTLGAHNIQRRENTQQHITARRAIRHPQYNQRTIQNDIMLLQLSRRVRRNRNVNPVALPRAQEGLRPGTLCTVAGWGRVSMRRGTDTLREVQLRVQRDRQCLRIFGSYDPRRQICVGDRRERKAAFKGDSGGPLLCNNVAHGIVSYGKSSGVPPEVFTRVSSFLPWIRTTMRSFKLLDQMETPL

[5] = target: T5, human plasmin (Homo sapiens, UniProt P00747); experiment: Inactivation rate of human plasmin; format: biochemical; details: Table VI; pH 7.5, 25° C; [I] 4 to 330 μM; read-out: kobs/[I]
T5 construct: human plasmin; from tissue; host or cells: human plasma

[6] = target: T6, bovine thrombin (Bos taurus, UniProt P00735); experiment: Inactivation rate of bovine thrombin; format: biochemical; details: pH 7.5, 25° C, read-out: kobs/[I]
T6 construct: bovine thrombin
Protocol: as §1, §2, §3, §4, §5, §6, §7, §8, §9

[7] = target: T7, human factor Xa (Homo sapiens, UniProt P00742); experiment: Inactivation rate of human factor Xa; format: biochemical; details: Table VIII; pH 7.5, 25° C; [I] 3.6-44 μM; read-out: kobs/[I]
T7 construct: human factor Xa
Protocol: as §1, §2, §3, §4, §5, §6, §7, §8, §9

[8] = target: T8, human factor XIIa (Homo sapiens, UniProt P00748); experiment: Inactivation rate of human factor XIIa; format: biochemical; details: Table VIII; pH 7.5, 25° C; [I] 3.6-4.9 μM; read-out: kobs/[I]
T8 construct: human factor XIIa
T8 sequence (P00748 373-615 limits assumed): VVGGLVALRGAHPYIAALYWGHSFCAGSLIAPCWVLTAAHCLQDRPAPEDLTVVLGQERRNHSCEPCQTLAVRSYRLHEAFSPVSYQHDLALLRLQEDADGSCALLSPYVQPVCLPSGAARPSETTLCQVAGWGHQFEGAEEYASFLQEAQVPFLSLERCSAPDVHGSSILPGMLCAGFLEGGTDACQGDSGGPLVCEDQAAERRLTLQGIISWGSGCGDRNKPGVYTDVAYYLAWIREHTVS
T8 sequence (P00748 20-372 partner limits assumed): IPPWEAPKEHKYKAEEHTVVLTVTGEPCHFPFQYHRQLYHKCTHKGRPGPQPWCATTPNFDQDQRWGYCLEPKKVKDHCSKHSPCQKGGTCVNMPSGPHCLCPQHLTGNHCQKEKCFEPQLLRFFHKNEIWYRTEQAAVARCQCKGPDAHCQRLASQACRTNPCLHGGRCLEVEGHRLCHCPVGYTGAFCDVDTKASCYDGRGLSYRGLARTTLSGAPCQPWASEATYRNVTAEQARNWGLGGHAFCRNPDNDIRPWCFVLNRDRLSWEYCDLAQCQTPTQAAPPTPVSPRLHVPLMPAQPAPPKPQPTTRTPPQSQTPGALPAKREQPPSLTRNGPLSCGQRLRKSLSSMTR
Protocol: as §1, §2, §3, §4, §5, §6, §7, §8, §9

[9] = target: T9, human thrombin (Homo sapiens, UniProt P00734); experiment: Inactivation rate of human thrombin; format: biochemical; details: Table VIII; pH 7.5, 25° C; [I] 1.2-54 μM; read-out: kobs/[I]
T9 construct: human thrombin
Protocol: as §1, §8, §9

[10] = target: human lung tryptase; experiment: Inactivation rate of human lung tryptase; format: biochemical; details: Table IX; pH 7.5, 25° C; [I] 0.42-0.47 μM
Protocol: as §1
^a Inactivation rates were measured at 0.1M Hepes, 0.5M NaCl, pH 7.5
buffer, 8% Me2 SO and 25° C.
as §8
(§10) 7.5 buffer for human plasmin; 25 mM Phosphate, 0.5M NaCl, 1 mM EDTA, pH
(§11) 7.5 buffer for rat skin tryptase and 0.1M Hepes, 0.5M NaCl, pH 7.5 for
(§12) human lung tryptase, human skin tryptase and rt-PA. All enzymes were
(§13) assayed with ZArg-SBzl (0.07 mM) in the presence of 4,4dithiodipyridine
(§14) (0.33 mM). Reaction mixtures contained 8% Me2 SO and assays were […]

[11] = target: T10, rat skin tryptase (Rattus norvegicus, UniProt P27435); experiment: Inactivation rate of rat skin tryptase; format: biochemical; details: pH 7.5, Table IX; pH 7.5, 25° C; [I] 0.42-0.51 μM; read-out: kobs/[I]
T10 construct: from tissue; host or cells: rat skin
Protocol: as §1
^b Inactivation rates were measured at 25 mM phosphate, 0.5M NaCl, 1
mM EDTA, pH 7.5 buffer, 9% Me2 SO and 25° C.
as §8, §10, §11, §12, §13, §14

[12] = target: chymotrypsin (Bos taurus, UniProt P00766); experiment: Inactivation of chymotrypsin; format: biochemical, bovine; details: Table X; pH 7.5, 25° C; [I] 0.9-43 μM; read-out: kobs/[I]
[13] = target: recombinant human tissue plasminogen activator (Homo sapiens, UniProt P00750); experiment: Inactivation rate of recombinant human tissue plasminogen activator; format: biochemical; details: pH 7.5, Table IX; pH 7.5, 25° C; [I] 3.5-5.0 μM; read-out: kobs/[I]
Protocol: as §1
^a Inactivation constants were measured at 0.1M Hepes, 0.5M NaCl (or
as §8, §10, §11, §12, §13, §14

T5 sequence (P00747 581-810 limits assumed): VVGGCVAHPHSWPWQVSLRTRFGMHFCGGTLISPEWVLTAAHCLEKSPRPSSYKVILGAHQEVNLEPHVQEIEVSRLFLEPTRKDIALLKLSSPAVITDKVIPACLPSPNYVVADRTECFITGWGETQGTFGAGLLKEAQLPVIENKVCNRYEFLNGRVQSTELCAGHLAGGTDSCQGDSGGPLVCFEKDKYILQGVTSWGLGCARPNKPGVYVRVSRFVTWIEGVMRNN
T5 sequence (P00747 97-580 partner limits assumed): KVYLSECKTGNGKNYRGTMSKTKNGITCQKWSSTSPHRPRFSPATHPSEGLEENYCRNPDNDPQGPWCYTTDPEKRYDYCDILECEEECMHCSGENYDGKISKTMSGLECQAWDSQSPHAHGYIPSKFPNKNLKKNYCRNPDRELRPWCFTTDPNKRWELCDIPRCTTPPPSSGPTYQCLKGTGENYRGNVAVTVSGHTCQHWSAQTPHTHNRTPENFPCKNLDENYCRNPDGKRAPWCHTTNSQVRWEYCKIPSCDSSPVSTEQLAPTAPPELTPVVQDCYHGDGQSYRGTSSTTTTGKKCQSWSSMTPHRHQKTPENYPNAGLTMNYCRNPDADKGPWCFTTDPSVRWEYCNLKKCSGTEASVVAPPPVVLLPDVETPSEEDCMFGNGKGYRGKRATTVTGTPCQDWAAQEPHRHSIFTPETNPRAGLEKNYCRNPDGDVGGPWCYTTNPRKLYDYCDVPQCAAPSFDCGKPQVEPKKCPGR
T2 sequence (P00772 27-266): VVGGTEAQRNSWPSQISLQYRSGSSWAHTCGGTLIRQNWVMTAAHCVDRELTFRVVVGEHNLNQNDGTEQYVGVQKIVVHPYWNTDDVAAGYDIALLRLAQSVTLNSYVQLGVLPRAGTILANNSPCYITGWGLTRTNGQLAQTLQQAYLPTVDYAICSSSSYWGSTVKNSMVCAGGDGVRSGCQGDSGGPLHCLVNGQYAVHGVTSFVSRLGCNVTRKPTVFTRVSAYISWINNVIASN
Sequence of recombinant human tissue plasminogen activator (P00750 36-562): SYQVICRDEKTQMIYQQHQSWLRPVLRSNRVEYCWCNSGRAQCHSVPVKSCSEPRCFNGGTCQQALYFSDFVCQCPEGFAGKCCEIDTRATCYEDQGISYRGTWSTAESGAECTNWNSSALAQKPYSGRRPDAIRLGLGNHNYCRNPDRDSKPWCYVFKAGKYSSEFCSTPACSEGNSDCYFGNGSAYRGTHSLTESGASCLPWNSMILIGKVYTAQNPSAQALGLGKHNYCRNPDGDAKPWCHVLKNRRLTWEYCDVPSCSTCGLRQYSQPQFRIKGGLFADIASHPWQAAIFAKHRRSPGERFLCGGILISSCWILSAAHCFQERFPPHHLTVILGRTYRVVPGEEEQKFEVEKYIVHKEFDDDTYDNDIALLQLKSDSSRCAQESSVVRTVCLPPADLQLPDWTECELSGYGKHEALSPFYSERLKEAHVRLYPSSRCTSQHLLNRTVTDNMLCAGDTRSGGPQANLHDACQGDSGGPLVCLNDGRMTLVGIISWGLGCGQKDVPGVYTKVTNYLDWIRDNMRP
T10 sequence (P27435 29-273): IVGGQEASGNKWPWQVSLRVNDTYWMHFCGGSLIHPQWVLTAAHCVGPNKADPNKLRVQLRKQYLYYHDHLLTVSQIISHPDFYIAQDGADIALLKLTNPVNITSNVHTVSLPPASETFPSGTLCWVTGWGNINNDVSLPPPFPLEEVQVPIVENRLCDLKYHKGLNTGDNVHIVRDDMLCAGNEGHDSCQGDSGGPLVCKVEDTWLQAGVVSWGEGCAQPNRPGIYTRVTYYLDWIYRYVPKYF
T7 sequence (P00742 235-488 limits assumed): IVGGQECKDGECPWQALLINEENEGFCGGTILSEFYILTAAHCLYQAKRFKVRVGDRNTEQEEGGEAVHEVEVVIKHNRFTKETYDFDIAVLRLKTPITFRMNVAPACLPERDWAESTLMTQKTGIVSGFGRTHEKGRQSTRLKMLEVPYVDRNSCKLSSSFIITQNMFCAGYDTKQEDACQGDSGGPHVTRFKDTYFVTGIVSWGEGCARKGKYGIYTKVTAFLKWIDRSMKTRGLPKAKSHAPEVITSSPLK
T7 sequence (P00742 41-179 partner limits assumed): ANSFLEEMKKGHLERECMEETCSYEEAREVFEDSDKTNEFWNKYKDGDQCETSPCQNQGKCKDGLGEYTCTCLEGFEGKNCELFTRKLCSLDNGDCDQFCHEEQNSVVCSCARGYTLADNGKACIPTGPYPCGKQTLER

kinact/KI [1] [M⁻¹ s⁻¹] | kinact/KI [2] [M⁻¹ s⁻¹] | kinact/KI [3] [M⁻¹ s⁻¹] | kinact/KI ([4]; Table IV, [I] 0.002 to 0.35 mM) [M⁻¹ s⁻¹] | kinact/KI [5] [M⁻¹ s⁻¹] | kinact/KI ([6]; Table VIII, [I] 1.2-54 μM) [M⁻¹ s⁻¹] | kinact/KI [7] [M⁻¹ s⁻¹] | kinact/KI [8] [M⁻¹ s⁻¹] | kinact/KI [9] [M⁻¹ s⁻¹] | kobs/[I] [10] | kinact/KI [11] [M⁻¹ s⁻¹] | kinact/KI [12] [M⁻¹ s⁻¹] | kinact/KI ([4]; Table X, [I] 33-46 μM) [M⁻¹ s⁻¹] | kinact/KI [13] [M⁻¹ s⁻¹] | kinact/KI ([6]; Table I, [I] 0.3 to 400 μM) [M⁻¹ s⁻¹] | SMILES
470 | 1610 | 13500 | 20 | 31 |  |  |  |  |  |  |  |  |  |  | COc1oc(=O)c2cc(NC(=O)[C@H](C)N)ccc2c1Cl [7-(Alanylamino)-3-Methoxy-4-Chloroisocoumarin Hydrochloride]
 |  |  |  |  | 1280 | 3770 | 107000 | 1340 | 260,000 M^-1 s^-1 | 650000 | 8400 | 53 | 13000 |  | N=C(N)SCCOc1oc(=O)c2cc(NC(=O)[C@@H](N)Cc3ccccc3)ccc2c1Cl [L-Phe--NH-CiTEtOIC, 7-(L-phenylalanylamino)-4-chloro-3-(2-isothiureidoethoxy)isocoumarin]
32100 | 1960 | 7710 | 4.9 | 1470 |  |  |  |  |  |  |  |  |  | 51.5 | COc1oc(=O)c2cc(NC(=O)CN)ccc2c1Cl [7-(glycylamino)-4-chloro-3-methoxyisocoumarin]
